In US20260053812A1, “METHODS OF TREATING HYPERTENSION WITH A COMBINATION OF AN ALDOSTERONE SYNTHASE INHIBITOR AND A DIURETIC” (Mineralys Therapeutics, Inc., priority 2022, published 2026):
Several values for one entry are separate records, joined by “and”; a condition that tells them apart may be missing. Identical values can stand only once. Entries after “also recorded” stand apart in the source; their conditions may differ. Like-named read-outs stand apart in the source and are kept apart here.

Experiments:
Format in all cases: in vivo, human
[1] = test system: subjects with uncontrolled hypertension; experiment: Seated automated office blood pressure (AOBP), randomized placebo-controlled dose-ranging study; details: for Automated office DBP, mean CFB at Week 8: Part 1
Description: A randomized, double-blinded, placebo-controlled, dose-ranging, multicenter study was conducted to evaluate the effect of orally administered Compound A HBr on blood pressure for the treatment of hypertension in male and female subjects ≥18 years of age.
The study consists of two parts. For enrollment into Part 1 of the study, a subject's value of plasma renin activity (PRA) must be ≤1 ng/mL/h based on morning measurement. If the value of PRA >1 ng/mL/h based on morning measurement, then subjects may be eligible to enter Part 2 of the study.
For Part 1, 163 enrolled subjects ≥18 years of age were randomized into 6 equal treatment groups (1:1:1:1:1:1) to 12.5 mg BID, 25 mg BID, 12.5 mg QD, 50 mg QD, 100 mg QD, or placebo. After a review of interim clinical data, the 2 lowest dose levels (12.5 mg QD and 12.5 mg BID) were stopped for future randomization due to a lack of consistent meaningful reduction of blood pressure, but the patients randomized to that point remained in the study through completion. Thus, after the review of interim clinical data, subjects were randomized into 4 equal treatment groups (1:1:1:1) to 25 mg BID, 50 mg QD, 100 mg QD, or placebo.
For Part 2, 36 enrolled subjects ≥18 years of age were randomized (5:1) to either 100 mg QD Compound A HBr or placebo such that the Compound A HBr treatment group consisted of approximately 30 subjects and the placebo treatment group will consist of approximately 6 subjects.
Subjects orally administered the assigned study drug (Compound A HBr or placebo) according to the assigned dosing regimen for 8 weeks beginning on Study Day 1. All subjects in Part 1 (regardless of dosing group) received BID dosing to preserve the integrity of the blind; active drug is administered as the morning dose for all QD dose groups. Subjects returned to the research facility or were seen by the clinical investigator or approved home health care professional at the end of Study Weeks 1, 2, 3, 4, 5, 6, 7, and 8 (±2 days) for protocol-defined efficacy and safety assessments and procedures, assessment of adverse events (AEs), and confirmation of compliance with study drug usage. Subjects also completed a telephone visit and blood pressure (BP) check at home approximately 3 days post last dose of study drug. Subjects attended up to 14 full clinic visits, including a pre-Screening visit, a Screening/start of Placebo Run-in visit, a second visit during Placebo Run-in, a clinic visit to initiate the ABPM procedure, a Randomization visit, 8 weekly visits during double-blind treatment, and an end-of-study visit scheduled 4 weeks after the last study treatment for final efficacy and safety assessments.
An automated oscillometric sphygmomanometer device was used to measure the subjects' systolic and diastolic blood pressure in office after approximately 5 minutes of rest in the seated position.
The primary endpoint is the change in office-measured (mean of last 2 of 5 unattended measurements using an automated oscillometric sphygmomanometer device after approximately 5 minutes of rest in the seated position) systolic blood pressure (SBP) from baseline to the end of Study Week 8.
Secondary endpoints of this study were: • (a) Change in 24-hour ambulatory blood pressure monitoring (ABPM) parameters (systolic and diastolic) from baseline to the end of Study Week 7. • (b) Change in office-measured SBP from baseline to the end of Study Weeks 1, 2, 3, 4, 5, 6, and 7. • (c) Change in office-measured diastolic blood pressure (DBP) from baseline to the end of Study Weeks 1, 2, 3, 4, 5, 6, 7, and 8. • (d) Proportion of subjects who achieve office-measured BP of ≤130/80 mm Hg by the end of Study Week 8.
For AOBP measurements and any other clinical or laboratory variable for which there are replicate evaluations at the screening and baseline visits, baseline is defined as the mean of the last two non-missing values prior to first administration of the IMP for the double-blinded treatment period.

[2] = test system: 11-deoxycorticosterone; experiment: Pharmacodynamics: 11-deoxycorticosterone
Description: (§1) PK/PD Analysis Set includes all subjects in the SAF who have sufficient data available for the analysis of pharmacokinetic and pharmacodynamic measurements. In the analyses based on PKPD, subjects will be analyzed according to the actual treatment received.

[3] = test system: 11-deoxycortisol; experiment: Pharmacodynamics: plasma 11-deoxycortisol; details: for 11-Deoxycortisol, mean observed: BL
Description: as §1

[4] = Pharmacokinetics (plasma concentration, Cmax, AUC, trough); details: for concentration at 7 day: human, plasma, oral, Day 7, read-out: Trough plasma concentration, Geo Mean
Description: Pharmacokinetic endpoints of this study are PK parameters, including, of area under the plasma concentration versus time curve (AUC), maximum plasma concentration (Cmax), time to maximum concentration (Tmax), and half-life (t1/2) will be summarized descriptively for Randomization (baseline) and Study Weeks 1, 4, and 8
as §1

[5] = test system: plasma renin activity; experiment: Pharmacodynamics: plasma renin activity (PRA); details: for Renin Activity, mean observed: BL
Description: as §1

[6] = test system: serum cortisol; experiment: Pharmacodynamics: serum cortisol; details: for Cortisol, mean observed: BL
Description: as §1

[7] = Part 1 active treatment arms, Week 4 compared with placebo
[8] = steady state, Day 28, 100 mg QD Part 1

For CC(=O)N[C@H]1CC[C@H](NC(=O)CN2CCN(c3nncc(-c4ccc(C)cc4)n3)CC2)CC1 [Compound A HBr], the “Placebo-corrected mean change in AOBP systolic BP, Full-analysis set” value ([1]; 100 mg, Part-1 and Part-2 (interim) combined, N=58 active) was −9.9 mmHg, the “Automated office DBP, mean CFB at Week 8” value ([1]; 12.5 mg BID, BMI <25 kg/m^2) was 6.00 mmHg and the “Automated office DBP, mean CFB at Week 8” value ([1]; 50 mg QD, Seated SBP Tertile Low) was −2.42 mmHg. For the same compound, the “Automated office DBP, mean CFB at Week 8” value ([1]; 100 mg QD, BMI 25-30 kg/m^2) was −6.50 mmHg, the “Automated office DBP, mean CFB at Week 8” value ([1]; 100 mg QD, Seated SBP Tertile Middle) was −6.17 mmHg and the “Automated office DBP, mean CFB at Week 8” value ([1]; 100 mg QD, thiazide diuretic use at baseline No) was −4.00 mmHg. The “Blood pressure reduction in individuals receiving a thiazide diuretic as background medication” value ([1]; observed across dosing cohorts) was “particularly effective”, the “Blood pressure reduction in individuals with BMI greater than 30” value ([1]; observed across dosing cohorts) was “particularly effective” and the “Subjects with change in BPsys >−15 mmHg” value ([1]; pooled 50 mg QD, 100 mg QD, 12.5 mg BID, 25 mg BID cohorts (N=103), week 8) was 41%. The “11-Deoxycorticosterone, mean observed” value ([2]; Part 1, 12.5 mg BID, Wk 12) was 8.0 ng/dL, the “11-Deoxycorticosterone, mean observed” value ([2]; Part 1, 12.5 mg QD, BL) was 8.3 ng/dL and the “11-Deoxycorticosterone, mean observed” value ([2]; Part 1, 25 mg BID, Wk 12) was 8.0 ng/dL. The “11-Deoxycorticosterone, mean observed” value ([2]; Part 1, 50 mg QD, BL) was 8.3 ng/dL, the “11-Deoxycorticosterone, mean observed” value ([2]; Part 1, 100 mg QD, Wk 12) was 8.4 ng/dL and the 11-deoxycorticosterone [2, 7] was “Transient increases”. The “11-Deoxycorticosterone, mean observed” value ([2]; Part 2, 100 mg QD, BL) was 10.71 ng/dL, the 11-deoxycorticosterone levels ([2]; summary of trial) was “unaffected” and the “11-Deoxycortisol, mean observed” value ([3]; Part 1, 12.5 mg BID) was 28.36 ng/dL. For the same compound, the “11-Deoxycortisol, mean observed” value ([3]; Part 1, 12.5 mg QD) was 29.07 ng/dL, the “11-Deoxycortisol, mean observed” value ([3]; Part 1, 25 mg BID) was 25.87 ng/dL and the “11-Deoxycortisol, mean observed” value ([3]; Part 1, 50 mg QD) was 31.14 ng/dL. For the same compound, the “11-Deoxycortisol, mean observed” value ([3]; Part 1, 100 mg QD) was 29.97 ng/dL, the 11-deoxycortisol [3, 7] was “Transient increases” and the “11-Deoxycortisol, mean observed” value ([3]; Part 2, 100 mg QD) was 40.79 ng/dL. The “Systemic exposure expressed as Cmax or AUC” value ([4]; across doses) was “increased with increasing dose”, the concentration at 7 day ([4]; 12.5 mg, 12.5 mg BID) was 20.4 ng/mL and the concentration at 7 day ([4]; 12.5 mg, 12.5 mg QD) was 6.55 ng/mL. It also gave a concentration at 7 day ([4]; 25 mg, 25 mg BID) of 49.6 ng/mL, a concentration at 7 day ([4]; 50 mg, 50 mg QD) of 16.6 ng/mL and a concentration at 7 day ([4]; 100 mg, 100 mg QD Part 1) of 53.4 ng/mL. For the same compound, the concentration at 7 day ([4]; 100 mg, 100 mg QD Part 2) was 35.1 ng/mL, the “AUC0-24, Median” value [4, 8] was 15000 ng·h/mL and the “Cmax, Geo Mean” value [4, 8] was 1370 ng/mL. The “Renin Activity, mean observed” value ([5]; Part 1, 12.5 mg BID) was 1.299 µg/L/h, the “Renin Activity, mean observed” value ([5]; Part 1, 12.5 mg QD) was 0.950 µg/L/h and the “Renin Activity, mean observed” value ([5]; Part 1, 25 mg BID) was 1.104 µg/L/h. The “Renin Activity, mean observed” value ([5]; Part 1, 50 mg QD) was 1.258 µg/L/h, the “Renin Activity, mean observed” value ([5]; Part 1, 100 mg QD) was 0.956 µg/L/h and the “Renin Activity, mean observed” value ([5]; Part 2, 100 mg QD) was 5.417 µg/L/h. For the same compound, the Plasma renin activity ([5]; pharmacodynamic response, all doses, listed as lorundrostat) was “commensurate increase; also recorded: increased in all subjects treated with lorundrostat”, the “Cortisol, mean observed” value ([6]; Part 1, 12.5 mg BID) was 10.195 µg/dL and the “Cortisol, mean observed” value ([6]; Part 1, 12.5 mg QD) was 9.443 µg/dL. The “Cortisol, mean observed” value ([6]; Part 1, 25 mg BID) was 10.577 µg/dL, the “Cortisol, mean observed” value ([6]; Part 1, 50 mg QD) was 10.807 µg/dL and the “Cortisol, mean observed” value ([6]; Part 1, 100 mg QD) was 11.272 µg/dL. The “Serum cortisol percent change from baseline” value (shortened to “Serum cortisol percent change”) ([6]; Part 1 active arms (range across doses), Week 4) was 3.8% to 19.2%, the “Serum cortisol percent change” value ([6]; Part 1 active arms (range across doses), Week 8) was 20.6% to 51.4% and the “Serum cortisol percent change” value ([6]; Part 1 active arms (range across doses), Week 12, listed as lorundrostat) was −1.2% to 22.7% and −1.2 to 22.6%. The “Serum cortisol percent change” value ([6]; Part 2 100 mg QD, Week 12) was 1.5%, the “Cortisol, mean observed” value ([6]; Part 2, 100 mg QD) was 11.118 µg/dL and the “Serum cortisol percent change” value ([6]; Part 2, 100 mg QD, Week 4) was 20.1%. For the same compound, the “Serum cortisol percent change” value ([6]; Part 2, 100 mg QD, Week 8) was 153.4%, the Adrenocortical insufficiency ([6]; during the trial, listed as lorundrostat) was “no adrenocortical insufficiency” and the “Effect on serum cortisol” value ([6]; pooled (Part 1 and Part 2) 100 mg QD safety set (n=60)) was “no effects on serum cortisol”. For the same compound, the “Morning serum cortisol levels” value ([6]; summary of trial) was “modestly increased”.
